Experiments:
Format in all cases: in vivo
[1] = tested on: redroot pigweed (Amaranthus retroflexus, AMARE); test: Pre-emerge test, greenhouse herbicide activity screening; details: pre-emerge, 14 days after application, scale 0-100
In short: (§1)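 Plants grown in 10 cm pots of sandy loam mix received acetone-dissolved compounds through a moving flat-fan nozzle. Doses ranged from 15 to 1000 g ai/ha. Pre-emerge pots were seeded one day earlier, post-emerge pots 8–21 days earlier. Fourteen days on, each pot was graded 0–100 for damage.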

[2] = tested on: barnyardgrass (Echinochloa crus-galli, ECHCG); test: as above; details: pre-emerge, 14 days after application, scale 0-100
In short: (§2)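 Rating: 0–100 visual injury, 14 DAA. Application: acetone, 187 l/ha, 15–1000 g ai/ha, flat-fan track sprayer with nozzle 40–45 cm above soil or canopy. Post-emerge runs used 0.25% v/v surfactant on 2–3 leaf plants.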

[3] = tested on: johnsongrass (Sorghum halepense, SORHA); test: as above; details: pre-emerge, 14 days after application, scale 0-100
In short: as §2

[4] = tested on: green foxtail (Setaria viridis, SETVI); test: as above; details: pre-emerge, 14 days after application, scale 0-100
In short: as §2

[5] = tested on: velvetleaf (Abutilon theophrasti, ABUTH); test: as above; details: pre-emerge, 14 days after application, scale 0-100
In short: as §2

[6] = tested on: ivyleaf morningglory (Ipomoea hederacea, IPOHE); test: as above; details: pre-emerge, 14 days after application, scale 0-100
In short: as §2

[7] = tested on: large crabgrass (Digitaria sanguinalis, DIGSA); test: as above; details: pre-emerge, 14 days after application, scale 0-100
In short: as §2

[8] = tested on: sicklepod (Cassia obtusifolia, CASOB); test: as above; details: pre-emerge, 14 days after application, scale 0-100
In short: as §2

[9] = tested on: lambsquarters (Chenopodium album, CHEAL); test: as above; details: pre-emerge, 14 days after application, scale 0-100
In short: as §2

[10] = tested on: barnyardgrass (Echinochloa crus-galli, ECHCG); test: Post-emerge test, greenhouse herbicide activity screening; details: post-emerge, 14 days after application, rating scale 0-100
In short: as §1

[11] = tested on: johnsongrass (Sorghum halepense, SORHA); test: as above; details: post-emerge, 14 days after application, rating scale 0-100
In short: as §1

[12] = tested on: green foxtail (Setaria viridis, SETVI); test: as above; details: post-emerge, 14 days after application, rating scale 0-100
In short: as §1

[13] = tested on: velvetleaf (Abutilon theophrasti, ABUTH); test: as above; details: post-emerge, 14 days after application, rating scale 0-100
In short: as §1

[14] = tested on: ivyleaf morningglory (Ipomoea hederacea, IPOHE); test: as above; details: post-emerge, 14 days after application, rating scale 0-100
In short: as §1

[15] = tested on: redroot pigweed (Amaranthus retroflexus, AMARE); test: as above; details: post-emerge, 14 days after application, rating scale 0-100
In short: as §1

[16] = tested on: large crabgrass (Digitaria sanguinalis, DIGSA); test: as above; details: post-emerge, 14 days after application, rating scale 0-100
In short: as §1

[17] = tested on: sicklepod (Cassia obtusifolia, CASOB); test: as above; details: post-emerge, 14 days after application, rating scale 0-100
In short: as §1

[18] = tested on: lambsquarters (Chenopodium album, CHEAL); test: as above; details: post-emerge, 14 days after application, rating scale 0-100
In short: as §1

[19] = tested on: field corn (Zea mays L., var. Dekalb 535, CORN); test: Pre-emerge test, crop safety; details: pre-emerge, 14 days after application, scale 0-100
In short: (§3)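 Applied at 15–1000 g ai/ha from acetone in 187 l/ha spray volume. Post-emergence applications included 0.25% v/v non-ionic surfactant and reached plants sown 8–21 days before. Pre-emergence applications were incorporated by surface watering. Efficacy or crop damage was rated on a 0–100 scale after 14 days.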

[20] = tested on: upland rice (Oryza sp., var. Tebonnet, RICE); test: Pre-emerge test, crop safety; details: pre-emerge, 14 days after application, scale 0-100
In short: as §3

[21] = tested on: field corn (Zea mays L., var. Dekalb 535, CORN); test: Post-emerge test, crop safety; details: post-emerge, 14 days after application, rating scale 0-100
In short: as §1

[22] = tested on: upland rice (Oryza sp., var. Tebonnet, RICE); test: Post-emerge test, crop safety; details: post-emerge, 14 days after application, rating scale 0-100
In short: as §1

**Q.** Which results are given for `CCOC(=O)CSCC(=O)Nc1c(OC)c(Cl)cc(F)c1-n1c(=O)cc(C(F)(F)F)n(C)c1=O` [2-170]?
**A.** phytotoxicity rating AMARE ([1]; 63 g ai/ha): 70; phytotoxicity rating AMARE ([1]; 250 g ai/ha): 100; phytotoxicity rating ECHCG ([2]; 63 g ai/ha): 0; phytotoxicity rating ECHCG ([2]; 250 g ai/ha): 50; phytotoxicity rating SORHA ([3]; 63 g ai/ha): 20; phytotoxicity rating SORHA ([3]; 250 g ai/ha): 80; phytotoxicity rating SETVI ([4]; 63 g ai/ha): 60; phytotoxicity rating SETVI ([4]; 250 g ai/ha): 90; phytotoxicity rating ABUTH ([5]; 63 g ai/ha): 90; phytotoxicity rating ABUTH ([5]; 250 g ai/ha): 100; phytotoxicity rating IPOHE ([6]; 63 g ai/ha): 40; phytotoxicity rating IPOHE ([6]; 250 g ai/ha): 70; phytotoxicity rating DIGSA ([7]; 63 g ai/ha): 30; phytotoxicity rating DIGSA ([7]; 250 g ai/ha): 90; phytotoxicity rating CASOB ([8]; 63 g ai/ha): 30; phytotoxicity rating CASOB ([8]; 250 g ai/ha): 60; phytotoxicity rating CHEAL ([9]; 63 g ai/ha): 100; phytotoxicity rating CHEAL ([9]; 250 g ai/ha): 100; ECHCG phytotoxicity rating ([10]; 63 g ai/ha): 0; ECHCG phytotoxicity rating ([10]; 250 g ai/ha): 20; SORHA phytotoxicity rating ([11]; 63 g ai/ha): 0; SORHA phytotoxicity rating ([11]; 250 g ai/ha): 10; SETVI phytotoxicity rating ([12]; 63 g ai/ha): 10; SETVI phytotoxicity rating ([12]; 250 g ai/ha): 20; ABUTH phytotoxicity rating ([13]; 63 g ai/ha): 35; ABUTH phytotoxicity rating ([13]; 250 g ai/ha): 90; IPOHE phytotoxicity rating ([14]; 63 g ai/ha): 50; IPOHE phytotoxicity rating ([14]; 250 g ai/ha): 95; AMARE phytotoxicity rating ([15]; 63 g ai/ha): 20; AMARE phytotoxicity rating ([15]; 250 g ai/ha): 30; DIGSA phytotoxicity rating ([16]; 63 g ai/ha): 0; DIGSA phytotoxicity rating ([16]; 250 g ai/ha): 30; CASOB phytotoxicity rating ([17]; 63 g ai/ha): 10; CASOB phytotoxicity rating ([17]; 250 g ai/ha): 60; CHEAL phytotoxicity rating ([18]; 63 g ai/ha): 60; CHEAL phytotoxicity rating ([18]; 250 g ai/ha): 50; phytotoxicity rating CORN (crop damage) ([19]; 63 g ai/ha): 10; phytotoxicity rating CORN (crop damage) ([19]; 250 g ai/ha): 15; phytotoxicity rating RICE (crop damage) ([20]; 63 g ai/ha): 10; phytotoxicity rating RICE (crop damage) ([20]; 250 g ai/ha): 0; CORN phytotoxicity rating (crop damage) ([21]; 63 g ai/ha): 5; CORN phytotoxicity rating (crop damage) ([21]; 250 g ai/ha): 15; RICE phytotoxicity rating (crop damage) ([22]; 63 g ai/ha): 5; RICE phytotoxicity rating (crop damage) ([22]; 250 g ai/ha): 10

**Q.** With `CCOC(=O)C(C)SCC(=O)Nc1c(OC)c(Cl)cc(F)c1-n1c(=O)cc(C(F)(F)F)n(C)c1=O` (stereo not shown) [2-171] as the molecule, how does the “phytotoxicity rating AMARE” value ([1]; 63 g ai/ha) read?
**A.** 50

**Q.** And the “phytotoxicity rating AMARE” value ([1]; 250 g ai/ha)?
**A.** 100

**Q.** And the “phytotoxicity rating ECHCG” value ([2]; 63 g ai/ha)?
**A.** 0

**Q.** And the “phytotoxicity rating ECHCG” value ([2]; 250 g ai/ha)?
**A.** 10

**Q.** And the “phytotoxicity rating SORHA” value ([3]; 63 g ai/ha)?
**A.** 10

**Q.** And the “phytotoxicity rating SORHA” value ([3]; 250 g ai/ha)?
**A.** 30

**Q.** And the “phytotoxicity rating SETVI” value ([4]; 63 g ai/ha)?
**A.** 30

**Q.** And the “phytotoxicity rating SETVI” value ([4]; 250 g ai/ha)?
**A.** 90

**Q.** What about the “phytotoxicity rating ABUTH” value ([5]; 63 g ai/ha) of the same molecule?
**A.** 90

**Q.** What about the “phytotoxicity rating ABUTH” value ([5]; 250 g ai/ha) of the same molecule?
**A.** 100

**Q.** And the “phytotoxicity rating IPOHE” value ([6]; 63 g ai/ha)?
**A.** 10

**Q.** And the “phytotoxicity rating IPOHE” value ([6]; 250 g ai/ha)?
**A.** 60

**Q.** What about the “phytotoxicity rating DIGSA” value ([7]; 63 g ai/ha) of the same molecule?
**A.** 20

**Q.** And the “phytotoxicity rating DIGSA” value ([7]; 250 g ai/ha)?
**A.** 80

**Q.** And the “phytotoxicity rating CASOB” value ([8]; 63 g ai/ha)?
**A.** 10

**Q.** And the “phytotoxicity rating CASOB” value ([8]; 250 g ai/ha)?
**A.** 30

**Q.** What about the “phytotoxicity rating CHEAL” value ([9]; 63 g ai/ha) of the same molecule?
**A.** 70

**Q.** What about the “phytotoxicity rating CHEAL” value ([9]; 250 g ai/ha) of the same molecule?
**A.** 100

**Q.** And the ECHCG phytotoxicity rating ([10]; 63 g ai/ha)?
**A.** 0

**Q.** What about the ECHCG phytotoxicity rating ([10]; 250 g ai/ha) of the same molecule?
**A.** 0

**Q.** And the SORHA phytotoxicity rating ([11]; 63 g ai/ha)?
**A.** 0

**Q.** What about the SORHA phytotoxicity rating ([11]; 250 g ai/ha) of the same molecule?
**A.** 10

**Q.** What about the SETVI phytotoxicity rating ([12]; 63 g ai/ha) of the same molecule?
**A.** 0

**Q.** And the SETVI phytotoxicity rating ([12]; 250 g ai/ha)?
**A.** 10

**Q.** What about the ABUTH phytotoxicity rating ([13]; 63 g ai/ha) of the same molecule?
**A.** 60

**Q.** And the ABUTH phytotoxicity rating ([13]; 250 g ai/ha)?
**A.** 100

**Q.** And the IPOHE phytotoxicity rating ([14]; 63 g ai/ha)?
**A.** 60

**Q.** What about the IPOHE phytotoxicity rating ([14]; 250 g ai/ha) of the same molecule?
**A.** 100

**Q.** What about the AMARE phytotoxicity rating ([15]; 63 g ai/ha) of the same molecule?
**A.** 30

**Q.** And the AMARE phytotoxicity rating ([15]; 250 g ai/ha)?
**A.** 50

**Q.** And the DIGSA phytotoxicity rating ([16]; 63 g ai/ha)?
**A.** 0

**Q.** And the DIGSA phytotoxicity rating ([16]; 250 g ai/ha)?
**A.** 10

**Q.** And the CASOB phytotoxicity rating ([17]; 63 g ai/ha)?
**A.** 30

**Q.** And the CASOB phytotoxicity rating ([17]; 250 g ai/ha)?
**A.** 40

**Q.** And the CHEAL phytotoxicity rating ([18]; 63 g ai/ha)?
**A.** 40

**Q.** And the CHEAL phytotoxicity rating ([18]; 250 g ai/ha)?
**A.** 90

**Q.** And the “phytotoxicity rating CORN (crop damage)” value ([19]; 63 g ai/ha)?
**A.** 0

**Q.** And the “phytotoxicity rating CORN (crop damage)” value ([19]; 250 g ai/ha)?
**A.** 0

**Q.** And the “phytotoxicity rating RICE (crop damage)” value ([20]; 63 g ai/ha)?
**A.** 0

**Q.** What about the “phytotoxicity rating RICE (crop damage)” value ([20]; 250 g ai/ha) of the same molecule?
**A.** 10

**Q.** And the “CORN phytotoxicity rating (crop damage)” value ([21]; 63 g ai/ha)?
**A.** 0

**Q.** And the “CORN phytotoxicity rating (crop damage)” value ([21]; 250 g ai/ha)?
**A.** 10

**Q.** And the “RICE phytotoxicity rating (crop damage)” value ([22]; 63 g ai/ha)?
**A.** 0

**Q.** What about the “RICE phytotoxicity rating (crop damage)” value ([22]; 250 g ai/ha) of the same molecule?
**A.** 10
